Data reported in ChEMBL document CHEMBL1135808, “A new type of mixed anhydride and its applications to the synthesis of 7-substituted 8-chloro-5,5-dioxoimidazo[1,2-b][1,4,2]benzodithiazines with in vitro antitumor activity” (2002).

Assays:
BT-549 [1] = assay: In vitro growth inhibition against breast cancer BT 549 cell line was reported.; type: functional; conditions: Homo sapiens
BT-549 [2] = assay: In vitro total growth inhibition against breast cancer BT 549 cell line was reported.; type: functional; conditions: Homo sapiens, read-out: Log TGI (converted)
Hs-578T = assay: In vitro growth inhibition against breast cancer HS 578T cell line was reported.; type: functional; conditions: Homo sapiens
MCF7 [3] = assay: In vitro growth inhibition against breast cancer MCF 7 cell line was reported.; type: functional; conditions: Homo sapiens
MCF7 [4] = assay: In vitro total growth inhibition against breast cancer MCF 7 cell lines was reported.; type: functional; conditions: Homo sapiens, read-out: Log TGI (converted)
MDA-MB-231 = assay: In vitro total growth inhibition against breast cancer MDA-MB-231/ATCC cell lines was reported.; type: functional; conditions: Homo sapiens, read-out: Log TGI (converted)
MDA-N = assay: In vitro total growth inhibition against breast cancer MDA-N cell lines was reported.; type: functional; conditions: Homo sapiens, read-out: Log TGI (converted)
NCI/ADR-RES = assay: In vitro total growth inhibition against breast cancer NCI/ADR-RES cell lines was reported.; type: functional; conditions: Homo sapiens, read-out: Log TGI (converted)
SF-295 = assay: Log of molar concentration leading to 50% cell death against CNS cancer SF-295 cell line was reported; type: functional; conditions: Homo sapiens, read-out: Log LC50 (the source's name) (converted)
SF-539 = assay: In vitro growth inhibition against CNS cancer SF-539 cell line was reported.; type: functional; conditions: Homo sapiens
SNB-19 = assay: In vitro total growth inhibition against CNS cancer SNB-19 cell lines was reported.; type: functional; conditions: Homo sapiens, read-out: Log TGI (converted)
SNB-75 [5] = assay: In vitro growth inhibition against CNS cancer SNB-75 cell line was reported.; type: functional; conditions: Homo sapiens
SNB-75 [6] = assay: In vitro total growth inhibition against CNS cancer SNB-75 cell lines was reported.; type: functional; conditions: Homo sapiens, read-out: Log TGI (converted)
SF-268 = assay: In vitro growth inhibition against CNS cancer SF-268 cell line was reported.; type: functional; conditions: Homo sapiens
HCT-15 [7] = assay: In vitro total growth inhibition against colon cancer HCT-15 cell lines was reported.; type: functional; conditions: Homo sapiens, read-out: Log TGI (converted)
KM12 = assay: In vitro total growth inhibition against colon cancer KM12 cell lines was reported.; type: functional; conditions: Homo sapiens, read-out: Log TGI (converted)
SW-620 = assay: In vitro total growth inhibition against colon cancer SW-620 cell lines was reported.; type: functional; conditions: Homo sapiens, read-out: Log TGI (converted)
CCRF-CEM = assay: In vitro growth inhibition against leukemia CCRF-CEM cell line was reported.; type: functional; conditions: Homo sapiens
HL-60 = assay: In vitro growth inhibition against leukemia HL-60(TB) cell line was reported.; type: functional; conditions: Homo sapiens
MOLT-4 = assay: In vitro total growth inhibition against leukemia MOLT-4 cell lines was reported.; type: functional; conditions: Homo sapiens, read-out: Log TGI (converted)
SK-MEL-2 [8] = assay: In vitro growth inhibition against melanoma SK-MEL-2 cell line was reported.; type: functional; conditions: Homo sapiens
SK-MEL-5 = assay: In vitro growth inhibition against melanoma SK-MEL-5 cell line was reported.; type: functional; conditions: Homo sapiens
UACC-257 [9] = assay: In vitro total growth inhibition against melanoma UACC-257 cell line was reported.; type: functional; conditions: Homo sapiens
A549 = assay: In vitro total growth inhibition against non-small-cell lung cancer A 549/ATCC cell lines was reported.; type: functional; conditions: Homo sapiens, read-out: Log TGI (converted)
NCI-H46 [10] = assay: Log of molar concentration leading to 50% cell death against non-small-cell lung cancer […] cell line was reported; type: functional; conditions: Homo sapiens, read-out: Log LC50 (the source's name) (converted)
NCI-H46 [11] = assay: In vitro total growth inhibition against non-small-cell lung cancer […] cell lines was reported.; type: functional; conditions: Homo sapiens, read-out: Log TGI (converted)
NCI-H522 [12] = assay: Log of molar concentration leading to 50% cell death against non-small-cell lung cancer NCI-522 cell line was reported; type: functional; conditions: Homo sapiens, read-out: Log LC50 (the source's name) (converted)
NCI-H522 [13] = assay: In vitro total growth inhibition against non-small-cell lung cancer NCI-522 cell lines was reported.; type: functional; conditions: Homo sapiens, read-out: Log TGI (converted)
NCI-H226 = assay: In vitro total growth inhibition against non-small-cell lung cancer NCI-H226 cell lines was reported.; type: functional; conditions: Homo sapiens, read-out: Log TGI (converted)
NCI-H322M [14] = assay: In vitro total growth inhibition against non-small-cell lung cancer NCI-H322M cell lines was reported.; type: functional; conditions: Homo sapiens, read-out: Log TGI (converted)
IGROV-1 [15] = assay: In vitro total growth inhibition against ovarian cancer IGROV1 cell lines was reported.; type: functional; conditions: Homo sapiens, read-out: Log TGI (converted)
OVCAR-3 = assay: In vitro total growth inhibition against ovarian cancer OVCAR-3 cell lines was reported.; type: functional; conditions: Homo sapiens, read-out: Log TGI (converted)
OVCAR-4 = assay: In vitro total growth inhibition against ovarian cancer OVCAR-4 cell lines was reported.; type: functional; conditions: Homo sapiens, read-out: Log TGI (converted)
OVCAR-5 = assay: In vitro total growth inhibition against ovarian cancer OVCAR-5 cell lines was reported.; type: functional; conditions: Homo sapiens, read-out: Log TGI (converted)
OVCAR-8 [16] = assay: In vitro growth inhibition against ovarian cancer OVCAR-8 cell line was reported.; type: functional; conditions: Homo sapiens
OVCAR-8 [17] = assay: In vitro total growth inhibition against ovarian cancer OVCAR-8 cell lines was reported.; type: functional; conditions: Homo sapiens, read-out: Log TGI (converted)
DU-145 = assay: In vitro growth inhibition against prostate cancer […] cell line was reported.; type: functional; conditions: Homo sapiens
CAKI-1 = assay: In vitro total growth inhibition against renal cancer CAKI-1cell lines was reported.; type: functional; conditions: Homo sapiens, read-out: Log TGI (converted)
RXF 393 [18] = assay: In vitro total growth inhibition against renal cancer RXF 393 cell lines was reported.; type: functional; conditions: Homo sapiens, read-out: Log TGI (converted)
786-0 = assay: In vitro growth inhibition against renal cancer […] cell line was reported.; type: functional; conditions: Homo sapiens
A498 [19] = assay: In vitro growth inhibition against renal cancer A498 cell line was reported.; type: functional; conditions: Homo sapiens
TK-10 [20] = assay: In vitro growth inhibition against renal cancer TK-10 cell line was reported.; type: functional; conditions: Homo sapiens
UO-31 [21] = assay: In vitro growth inhibition against renal cancer UO-31 cell line was reported.; type: functional; conditions: Homo sapiens
LOX IMVI = assay: In vitro total growth inhibition against melanoma LOX IMVI cell lines was reported.; type: functional; conditions: Homo sapiens, read-out: Log TGI (converted)
SK-MEL-2 [22] = assay: Log of molar concentration leading to 50% cell death against melanoma SK-MEL-2 cell line was reported; type: functional; conditions: Homo sapiens, read-out: Log LC50 (the source's name) (converted)
SK-MEL-2 [23] = assay: In vitro total growth inhibition against melanoma SK-MEL-2 cell lines was reported.; type: functional; conditions: Homo sapiens, read-out: Log TGI (converted)
PC-3 [24] = assay: Log of molar concentration leading to 50% cell death against prostate cancer PC-3 cell line was reported; type: functional; conditions: Homo sapiens, read-out: Log LC50 (the source's name) (converted)
UACC-257 [25] = assay: In vitro total growth inhibition against melanoma UACC-257 cell lines was reported.; type: functional; conditions: Homo sapiens, read-out: Log TGI (converted)
IGROV-1 [26] = assay: Log of molar concentration leading to 50% cell death against ovarian cancer IGROV1 cell line was reported; type: functional; conditions: Homo sapiens, read-out: Log LC50 (the source's name) (converted)
NCI-H322M [27] = assay: In vitro growth inhibition against non-small-cell lung cancer […] cell line was reported.; type: functional; conditions: Homo sapiens
RXF 393 [28] = assay: Log of molar concentration leading to 50% cell death against renal cancer RXF 393 cell line was reported; type: functional; conditions: Homo sapiens, read-out: Log LC50 (the source's name) (converted)
TK-10 [29] = assay: Log of molar concentration leading to 50% cell death against renal cancer TK-10 cell line was reported; type: functional; conditions: Homo sapiens, read-out: Log LC50 (the source's name) (converted)
U-251 = assay: Log of molar concentration leading to 50% cell death against CNS cancer U251 cell line was reported; type: functional; conditions: Homo sapiens, read-out: Log LC50 (the source's name) (converted)
HCT-15 [30] = assay: In vitro growth inhibition against colon cancer […] cell line was reported.; type: functional; conditions: Homo sapiens
RPMI-8226 = assay: In vitro growth inhibition against leukemia […] cell line was reported.; type: functional; conditions: Homo sapiens
HCC 2998 = assay: Log of molar concentration leading to 50% cell death against colon cancer HCC2998 cell line was reported; type: functional; conditions: Homo sapiens, read-out: Log LC50 (the source's name) (converted)
UO-31 [31] = assay: In vitro total growth inhibition against renal cancer UO-31 cell lines was reported.; type: functional; conditions: Homo sapiens, read-out: Log TGI (converted)
PC-3 [32] = assay: In vitro total growth inhibition against prostate cancer PC-3 cell lines was reported.; type: functional; conditions: Homo sapiens, read-out: Log TGI (converted)
SR = assay: In vitro total growth inhibition against leukemia SR cell lines was reported.; type: functional; conditions: Homo sapiens, read-out: Log TGI (converted)
A498 [33] = assay: In vitro total growth inhibition against renal cancer A-498 cell lines was reported.; type: functional; conditions: Homo sapiens, read-out: Log TGI (converted)
HOP-92 = assay: In vitro total growth inhibition against non-small-cell lung cancer HOP-92 cell lines was reported.; conditions: Homo sapiens, read-out: Log TGI (converted)

Cc1ccc2cccc(NC(=O)c3cc4c(cc3Cl)Sc3nccn3S4(=O)=O)c2n1
GI50 (BT-549 [1]): 11.5 µM
TGI (BT-549 [2]): 60.3 µM
GI50 (Hs-578T): 13.5 µM
GI50 (MCF7 [3]): 3.24 µM
TGI (MCF7 [4]): 14.8 µM
TGI (MDA-MB-231): 24 µM
TGI (MDA-N): 91.2 µM
TGI (NCI/ADR-RES): 41.7 µM
CC50 (SF-295): 53.7 µM
GI50 (SF-539): 1.82 µM
TGI (SNB-19): 33.9 µM
GI50 (SNB-75 [5]): 6.92 µM
TGI (SNB-75 [6]): 30.9 µM
GI50 (SF-268): 9.55 µM
TGI (HCT-15 [7]): 27.5 µM
TGI (KM12): 19.1 µM
TGI (SW-620): 23.4 µM
GI50 (CCRF-CEM): 2.51 µM
GI50 (HL-60): 0.01 µM
TGI (MOLT-4): 20 µM
GI50 (SK-MEL-2 [8]): 13.2 µM
GI50 (SK-MEL-5): 10.7 µM
GI50 (UACC-257 [9]): 13.8 µM
TGI (A549): 25.7 µM
CC50 (NCI-H46 [10]): 26.9 µM
TGI (NCI-H46 [11]): 7.76 µM
CC50 (NCI-H522 [12]): 66.1 µM
TGI (NCI-H522 [13]): 26.3 µM
TGI (NCI-H226): 57.5 µM
TGI (NCI-H322M [14]): 24.5 µM
TGI (IGROV-1 [15]): 6.92 µM
TGI (OVCAR-3): 11.5 µM
TGI (OVCAR-4): 24.5 µM
TGI (OVCAR-5): 37.2 µM
GI50 (OVCAR-8 [16]): 3.8 µM
TGI (OVCAR-8 [17]): 14.5 µM
GI50 (DU-145): 5.5 µM
TGI (CAKI-1): 63.1 µM
TGI (RXF 393 [18]): 25.1 µM
GI50 (786-0): 16.2 µM
GI50 (A498 [19]): 16.2 µM
GI50 (TK-10 [20]): 8.51 µM
GI50 (UO-31 [21]): 1.02 µM
TGI (LOX IMVI): 18.2 µM
CC50 (SK-MEL-2 [22]): 77.6 µM
TGI (SK-MEL-2 [23]): 32.4 µM
CC50 (PC-3 [24]): 32.4 µM
TGI (UACC-257 [25]): 26.9 µM
CC50 (IGROV-1 [26]): 23.4 µM
GI50 (NCI-H322M [27]): 12 µM
CC50 (RXF 393 [28]): 64.6 µM
CC50 (TK-10 [29]): 45.7 µM
CC50 (U-251): 38 µM
GI50 (HCT-15 [30]): 4.79 µM
GI50 (RPMI-8226): 1.7 µM
CC50 (HCC 2998): 14.5 µM
TGI (UO-31 [31]): 42.7 µM
TGI (PC-3 [32]): 10.5 µM
TGI (SR): 5.89 µM
TGI (A498 [33]): 40.7 µM
TGI (HOP-92): 67.6 µM
